Source: the supplement of paper PMC10307832

Legend:
Experiment in all cases: relative viability (nuclei count vs DMSO), 5 days (fraction); higher = more cells survive
NCI-H2347 = system: NCI-H2347
Procedure, shortened: (§1)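 Five library-drug doses in √10 steps were combined with a fixed anchor-drug dose, or a single drug was given alone, by pin tool to lung cancer cell lines in 1536-well plates the day after seeding. Nuclei were stained and counted after 5 days. Relative viability is the nuclei count in treated wells over that in vehicle wells, taken as the median of duplicate plates.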

NCI-H1651 = system: NCI-H1651
Procedure, shortened: as §1

NCI-H2126 = system: NCI-H2126
Procedure, shortened: as §1

HCC-15 = system: HCC-15
Procedure, shortened: as §1

NCI-H1993 = system: NCI-H1993
Procedure, shortened: as §1

PC-14 = system: PC-14
Procedure, shortened: as §1

HCC-44 = system: HCC-44
Procedure, shortened: as §1

NCI-H1355 = system: NCI-H1355
Procedure, shortened: as §1

NCI-H838 = system: NCI-H838
Procedure, shortened: as §1

SW 1573 = system: SW 1573
Procedure, shortened: as §1

UMC-11 = system: UMC-11
Procedure, shortened: as §1

HOP-62 = system: HOP-62
Procedure, shortened: as §1

LC-2-ad = system: LC-2-ad
Procedure, shortened: as §1

LU99A = system: LU99A
Procedure, shortened: as §1

NCI-H650 = system: NCI-H650
Procedure, shortened: as §1

COR-L23 = system: COR-L23
Procedure, shortened: as §1

ABC-1 = system: ABC-1
Procedure, shortened: as §1

HARA = system: HARA
Procedure, shortened: as §1

EPLC-272H = system: EPLC-272H
Procedure, shortened: as §1

NCI-H1915 = system: NCI-H1915
Procedure, shortened: as §1

NCI-H2085 = system: NCI-H2085
Procedure, shortened: as §1

NCI-H2023 = system: NCI-H2023
Procedure, shortened: as §1

SMILES: Nc1ccn([C@@H]2O[C@H](CO)[C@@H](O)[C@@H]2O)c(=O)n1 [Cytarabine] + CC(C)C[C@H](NC(=O)[C@H](Cc1ccccc1)NC(=O)c1cnccn1)B(O)O [Bortezomib] (partner 0.002 µM)
- relative viability (NCI-H2347; first compound 0.005 µM): 1.22
- relative viability (NCI-H2347; first compound 0.01581 µM): 0.951
- relative viability (NCI-H2347; first compound 0.05 µM): 0.546
- relative viability (NCI-H2347; first compound 0.1581 µM): 0.61
- relative viability (NCI-H2347; first compound 0.5 µM): 0.667
- relative viability (NCI-H1651; first compound 0.005 µM): 1.09
- relative viability (NCI-H1651; first compound 0.01581 µM): 0.916
- relative viability (NCI-H1651; first compound 0.05 µM): 0.808
- relative viability (NCI-H1651; first compound 0.1581 µM): 0.7
- relative viability (NCI-H1651; first compound 0.5 µM): 0.663
- relative viability (NCI-H2126; first compound 0.005 µM): 1.08
- relative viability (NCI-H2126; first compound 0.01581 µM): 1.07
- relative viability (NCI-H2126; first compound 0.05 µM): 1.09
- relative viability (NCI-H2126; first compound 0.1581 µM): 0.703
- relative viability (NCI-H2126; first compound 0.5 µM): 0.699
- relative viability (HCC-15; first compound 0.005 µM): 0.795
- relative viability (HCC-15; first compound 0.01581 µM): 1.03
- relative viability (HCC-15; first compound 0.05 µM): 1.16
- relative viability (HCC-15; first compound 0.1581 µM): 0.883
- relative viability (HCC-15; first compound 0.5 µM): 0.668
- relative viability (NCI-H1993; first compound 0.005 µM): 1.1
- relative viability (NCI-H1993; first compound 0.01581 µM): 0.964
- relative viability (NCI-H1993; first compound 0.05 µM): 1
- relative viability (NCI-H1993; first compound 0.1581 µM): 0.768
- relative viability (NCI-H1993; first compound 0.5 µM): 0.62
- relative viability (PC-14; first compound 0.005 µM): 0.872
- relative viability (PC-14; first compound 0.01581 µM): 0.88
- relative viability (PC-14; first compound 0.05 µM): 0.641
- relative viability (PC-14; first compound 0.1581 µM): 0.326
- relative viability (PC-14; first compound 0.5 µM): 0.268
- relative viability (HCC-44; first compound 0.005 µM): 0.828
- relative viability (HCC-44; first compound 0.01581 µM): 0.895
- relative viability (HCC-44; first compound 0.05 µM): 0.793
- relative viability (HCC-44; first compound 0.1581 µM): 0.425
- relative viability (HCC-44; first compound 0.5 µM): 0.405
- relative viability (NCI-H1355; first compound 0.005 µM): 1.02
- relative viability (NCI-H1355; first compound 0.01581 µM): 1.18
- relative viability (NCI-H1355; first compound 0.05 µM): 0.927
- relative viability (NCI-H1355; first compound 0.1581 µM): 0.644
- relative viability (NCI-H1355; first compound 0.5 µM): 0.389
- relative viability (NCI-H838; first compound 0.005 µM): 0.802
- relative viability (NCI-H838; first compound 0.01581 µM): 0.615
- relative viability (NCI-H838; first compound 0.05 µM): 0.506
- relative viability (NCI-H838; first compound 0.1581 µM): 0.242
- relative viability (NCI-H838; first compound 0.5 µM): 0.21
- relative viability (SW 1573; first compound 0.005 µM): 1.1
- relative viability (SW 1573; first compound 0.01581 µM): 0.847
- relative viability (SW 1573; first compound 0.05 µM): 0.675
- relative viability (SW 1573; first compound 0.1581 µM): 0.461
- relative viability (SW 1573; first compound 0.5 µM): 0.159
- relative viability (UMC-11; first compound 0.005 µM): 0.339
- relative viability (UMC-11; first compound 0.01581 µM): 0.381
- relative viability (UMC-11; first compound 0.05 µM): 0.341
- relative viability (UMC-11; first compound 0.1581 µM): 0.155
- relative viability (UMC-11; first compound 0.5 µM): 0.155
- relative viability (HOP-62; first compound 0.005 µM): 0.58
- relative viability (HOP-62; first compound 0.01581 µM): 0.291
- relative viability (HOP-62; first compound 0.05 µM): 0.208
- relative viability (HOP-62; first compound 0.1581 µM): 0.174
- relative viability (HOP-62; first compound 0.5 µM): 0.0493
- relative viability (LC-2-ad; first compound 0.005 µM): 1.01
- relative viability (LC-2-ad; first compound 0.01581 µM): 0.888
- relative viability (LC-2-ad; first compound 0.05 µM): 0.954
- relative viability (LC-2-ad; first compound 0.1581 µM): 0.434
- relative viability (LC-2-ad; first compound 0.5 µM): 0.145
- relative viability (LU99A; first compound 0.005 µM): 1.14
- relative viability (LU99A; first compound 0.01581 µM): 1.24
- relative viability (LU99A; first compound 0.05 µM): 1.26
- relative viability (LU99A; first compound 0.1581 µM): 1.01
- relative viability (LU99A; first compound 0.5 µM): 1.03
- relative viability (NCI-H650; first compound 0.005 µM): 0.606
- relative viability (NCI-H650; first compound 0.01581 µM): 0.486
- relative viability (NCI-H650; first compound 0.05 µM): 0.349
- relative viability (NCI-H650; first compound 0.1581 µM): 0.223
- relative viability (NCI-H650; first compound 0.5 µM): 0.209
- relative viability (COR-L23; first compound 0.005 µM): 1.01
- relative viability (COR-L23; first compound 0.01581 µM): 0.945
- relative viability (COR-L23; first compound 0.05 µM): 0.913
- relative viability (COR-L23; first compound 0.1581 µM): 0.274
- relative viability (COR-L23; first compound 0.5 µM): 0.165
- relative viability (ABC-1; first compound 0.005 µM): 0.307
- relative viability (ABC-1; first compound 0.01581 µM): 0.345
- relative viability (ABC-1; first compound 0.05 µM): 0.285
- relative viability (ABC-1; first compound 0.1581 µM): 0.233
- relative viability (ABC-1; first compound 0.5 µM): 0.29
- relative viability (HARA; first compound 0.005 µM): 0.725
- relative viability (HARA; first compound 0.01581 µM): 0.642
- relative viability (HARA; first compound 0.05 µM): 0.652
- relative viability (HARA; first compound 0.1581 µM): 0.179
- relative viability (HARA; first compound 0.5 µM): 0.139
- relative viability (EPLC-272H; first compound 0.005 µM): 0.906
- relative viability (EPLC-272H; first compound 0.01581 µM): 0.831
- relative viability (EPLC-272H; first compound 0.05 µM): 0.53
- relative viability (EPLC-272H; first compound 0.1581 µM): 0.412
- relative viability (EPLC-272H; first compound 0.5 µM): 0.453
- relative viability (NCI-H1915; first compound 0.005 µM): 0.74
- relative viability (NCI-H1915; first compound 0.01581 µM): 0.952
- relative viability (NCI-H1915; first compound 0.05 µM): 0.8
- relative viability (NCI-H1915; first compound 0.1581 µM): 0.385
- relative viability (NCI-H1915; first compound 0.5 µM): 0.25
- relative viability (NCI-H2085; first compound 0.005 µM): 0.983
- relative viability (NCI-H2085; first compound 0.01581 µM): 0.913
- relative viability (NCI-H2085; first compound 0.05 µM): 0.946
- relative viability (NCI-H2085; first compound 0.1581 µM): 0.631
- relative viability (NCI-H2085; first compound 0.5 µM): 0.66
- relative viability (NCI-H2023; first compound 0.005 µM): 0.469
- relative viability (NCI-H2023; first compound 0.01581 µM): 0.198
- relative viability (NCI-H2023; first compound 0.05 µM): 0.17
- relative viability (NCI-H2023; first compound 0.1581 µM): 0.0751
- relative viability (NCI-H2023; first compound 0.5 µM): 0.0603
